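Compound exposure: 48 hours, 5 concentrations, 96-well plates. GI50: concentration for 50% inhibition of growth.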 Calls of active or inactive are those of the source. Cut-off read from the data, not from the text of the source: active = GI50 up to about 1.1 µM and inactive = higher.
Legend:
Assay in all cases: DTP human tumour cell line panel, 48 h
SNB-78 = system: SNB-78
HOP-18 = system: HOP-18
LXFL 529 = system: LXFL 529
786-0 = system: 786-0
Hs-578T = system: Hs-578T
MDA-MB-231 = system: MDA-MB-231
T47D = system: T47D
MDA-MB-435 = system: MDA-MB-435
RXF 631 = system: RXF 631

SMILES | GI50 (SNB-78) | GI50 (HOP-18) | GI50 (LXFL 529) | GI50 (786-0) | GI50 (Hs-578T) | GI50 (MDA-MB-231) | GI50 (T47D) | GI50 (MDA-MB-435) | GI50 (RXF 631)
COc1cc(/C=C/C(=O)O)ccc1C(=O)O/C=C/c1ccccc1 | > 100 µM (inactive) | > 100 µM (inactive) |  |  |  |  |  |  | 
CC(C)C(=O)CC(c1ccc(Br)cc1)N1N=C(C(C)C)CC1c1ccc(Br)cc1 (centres undefined) |  | > 100 µM (inactive) | > 100 µM (inactive) |  |  |  |  |  | 
COc1ccc2[nH]c3c(C)c4ccnc(NCCCN(C)CCCNc5ccc6nnn7c8ccccc8c(=O)c5c67)c4c(C)c3c2c1 |  |  |  | 0.237 µM (active) | 1.38 µM (inactive) | 0.181 µM (active) | 1.81 µM (inactive) | 0.362 µM (active) | 
ICC1CCCO1 (centres undefined) | > 100 µM (inactive) | > 100 µM (inactive) | > 100 µM (inactive) |  |  |  |  |  | > 100 µM (inactive)
CC(C)=CCc1c(C)cc2cc3c(c(O)c2c1O)C(=O)C=C(O)C3(CC=C(C)C)C/C=C(\C)CO (centres undefined) |  | 3.61 µM (inactive) |  |  |  |  |  |  | 
O=C1c2ccccc2C(=O)N1CC(CN1C(=O)c2ccccc2C1=O)(C(=O)OCc1ccccc1)C(=O)OCc1ccccc1 |  |  |  |  | > 100 µM (inactive) | > 100 µM (inactive) | > 100 µM (inactive) | > 100 µM (inactive) | 
COC(=O)NCCc1n[nH]c2c1C(=O)C=C(N1CCOCC1)C2=O |  |  |  | > 100 µM (inactive) | > 100 µM (inactive) | > 100 µM (inactive) | > 100 µM (inactive) | > 100 µM (inactive) | 
CC(=O)OC1CCn2c1nc1cc([N+](=O)[O-])c(C)cc12 (centres undefined) |  |  |  | > 100 µM (inactive) | > 100 µM (inactive) | > 100 µM (inactive) | > 100 µM (inactive) | > 100 µM (inactive) | 
FC(F)(F)C1=NC(=NNc2nnc(-c3ccccc3)c(-c3ccccc3)n2)N=C(C(F)(F)F)C1 | > 67.9 µM (inactive) | 50.2 µM (inactive) |  |  |  |  |  |  | 
O=C1C=C(N2CC2)C(=O)C=C1N1CC1 | 0.138 µM (active) |  | 0.159 µM (active) |  | 2.39 µM (inactive) | 2.3 µM (inactive) | 1.05 µM (active) | 1.23 µM (inactive) | 
CC1(C)CCCCCC(C)(CCCO)C1=O (centres undefined) |  |  |  | > 100 µM (inactive) | > 100 µM (inactive) | > 100 µM (inactive) | > 100 µM (inactive) | > 100 µM (inactive) | 
C[C@H](CN1CC(=O)NC(=O)C1)N1CC(=O)NC(=O)C1 | > 100 µM (inactive) | > 100 µM (inactive) |  |  |  |  |  |  | 
COc1ccc2c(c1)CCCc1cn[nH]c1-2 | > 100 µM (inactive) | > 100 µM (inactive) |  |  |  |  |  |  | 
CC(C)C1OC(=O)/C=C/C=C/C=C/C=C/C=C/CC(O)C(C)C(O)CC(O)CC(O)CC(O)CC(O)CC(O)CC(O)/C=C/C1C (centres undefined) |  |  |  |  | > 100 µM (inactive) |  |  | > 100 µM (inactive) | 
CCCNC1=NC(C)=CSC(Nc2ccccc2)=C1C#N |  |  |  | > 100 µM (inactive) |  | > 100 µM (inactive) | > 100 µM (inactive) | > 100 µM (inactive) | 
CCOC(=O)C1(C(=O)OCC)CSC1 |  |  |  |  | > 100 µM (inactive) | > 100 µM (inactive) | > 100 µM (inactive) | > 100 µM (inactive) | 
O=C1C2=C(C3=NCCc4c[nH]c1c43)C1(C=C(Br)C(O)C(Br)=C1)CCN2 (centres undefined) | 2.79 µM (inactive) | 10.7 µM (inactive) |  |  |  |  |  |  | 
N#Cc1c(NC(=S)Nc2ccc(Cl)cc2)sc2c1CCCC2 |  |  |  |  |  | 3.54 µM (inactive) | > 100 µM (inactive) | > 100 µM (inactive) | 
OCC(CO)CC1COc2ccccc2O1 (centres undefined) |  |  |  |  | > 10 µM (inactive) | > 10 µM (inactive) | > 10 µM (inactive) | > 10 µM (inactive) | 

Source: ChEMBL document CHEMBL1201862, “PubChem BioAssay data set” (2004)
